This data set deals with T1, FUS-SNAP condensates (Homo sapiens, UniProt P35637).
T1 sequence (P35637 1-526): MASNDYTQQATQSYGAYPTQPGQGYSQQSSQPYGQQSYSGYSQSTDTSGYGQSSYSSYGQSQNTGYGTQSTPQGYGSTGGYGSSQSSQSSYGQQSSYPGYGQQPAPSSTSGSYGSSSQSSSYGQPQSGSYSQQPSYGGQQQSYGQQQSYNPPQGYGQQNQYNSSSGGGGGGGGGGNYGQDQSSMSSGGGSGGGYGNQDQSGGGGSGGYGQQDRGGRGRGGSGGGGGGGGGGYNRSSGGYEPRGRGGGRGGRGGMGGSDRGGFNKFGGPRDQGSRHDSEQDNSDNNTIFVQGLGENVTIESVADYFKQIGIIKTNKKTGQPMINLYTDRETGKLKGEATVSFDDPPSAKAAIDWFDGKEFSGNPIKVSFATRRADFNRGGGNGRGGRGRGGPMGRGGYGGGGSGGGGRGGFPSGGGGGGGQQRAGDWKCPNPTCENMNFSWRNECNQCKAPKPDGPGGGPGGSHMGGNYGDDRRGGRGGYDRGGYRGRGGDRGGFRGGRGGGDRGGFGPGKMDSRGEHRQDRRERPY
Put plainly: Mass spectrometry-based depletion assay of compound partitioning. It is filed as physicochemical. The settings on record: for Ratio of compound concentration in versus compound concentration out, MS-based assay: condensate volume fraction of 1/1000 used; for Measured fraction outside of the FUS-SNAP condensates, single compound test reactions versus mixture of four compounds: FIG. 9A, 9B, 0.1 μM and 1 μM, triplicate; for Measured fraction outside of the FUS-SNAP condensates, single compound test reactions versus mixture of four compounds / Partitioning into FUS-condensates at different compound concentrations (fraction of compound in supernatant): 0.01 μM; for Partitioning into FUS-condensates at different compound concentrations (fraction of compound in supernatant): FIG. 8, 0.1 μM, 1 μM and 10 μM, N=3 technical repeats; for Identified partitioning into FUS-condensates: as identified before Example 5. The protocol: Protein Buffer was prepared (50 mM Tris, pH 7.25, 500 mM KCl, 1 mM DTT, and 5% glycerol). The high salt concentration of Protein Buffer prevents phase separation of macromolecules, e.g., proteins, contained therein. 20 μl aliquots of 70 μM FUS-SNAP protein stock solution were prepared in Protein Buffer. The aliquots of FUS-SNAP protein stock solution were frozen and stored prior to use. Dilution Buffer was prepared (14.7 mM Tris, pH 7.25, and 1 mM DTT).
Aliquots of 70 μM FUS-SNAP protein stock solution were thawed at room temperature for about 10 minutes. The aliquots of protein stock solution appeared clear with no visible precipitates. The thawed protein stock solution were filtered using centrifugation filters (Millipore, UFC30VV00). In brief, the aliquots of protein stock solution were added to a centrifugation filed and centrifuged for 1 minutes at 20,000 rcf at room temperature. The flow-through was collected. The protein concentration of the flow-through was measured and a solution of 33.3 μM FUS-SNAP was prepared by diluting the filtered flow-through and Dilution Buffer.
40 μL test reactions were prepared inside a PCR-tube or a PCR-strip (8 wells; AXYGEN™ 8-Strip PCR Tubes, 0.2 mL) using the following: (i) 34 μL Dilution Buffer, with the test compound at a given concentration, and with DMSO to obtain a final DMSO concentration of 1%, and (ii) 6 μL of 33.3 μM FUS-SNAP filtered protein solution. The final concentration of the 40 reactions were 5 μM FUS-SNAP, 75 mM KCl, 20 mM Tris, 0.75% Glycerol, 1 mM DTT, 1% DMSO, and, for the reactions containing a test compound, the desired test compound concentration.
40 μL reference reactions were prepared as described for the test reactions, however, no test compound was added at this stage.
The test reactions and the reference reactions were incubated for 15 minutes at room temperature. It is expected that within the test reactions, condensed high density liquid droplets (mM concentration of protein) of FUS-SNAP protein (condensed phase) are present in an environment of a lower concentrated solution (μM concentration of protein) of FUS-SNAP dilute phase. Test compounds may or may not partition into the condensed phase causing a reduction of the concentration outside (test compound in the dilute phase) and an increase of the concentration inside (test compound in the droplets). The volume of high density liquid droplets is estimated to be at least 1000-fold smaller than the total volume of the reaction, e.g., 20 nL of a condensed phase in a 20 μL reaction.
Following the 15 minute incubation period, the test reactions and reference reactions were processed to separate condensates (the high density liquid droplets) from the supernatant (the dilute phase). Briefly, the test reactions and reference reactions were centrifuged at 10,000 rcf for 10 minutes in a cooled centrifuge at 20° C. When PCR-strips were sued, the rotor used was the Eppendorf F-45-48-5-PCR. 35 μL of the supernatant from each tube was removed and transferred to a new tube being careful not to disturb the pellets, which contained the condensates.
For the reference reactions, a known amount of the test compound was added to the tube containing the supernatant (which contains protein not associated with a condensate), such that the final compound concentration is the same as the initial concentration of the compound in the test reaction. Reference reactions can also be formed by measuring the amount of protein in the supernatant of a test reaction and replicating a supernatant solution based on the obtained information. The known amount of the compound added to the supernatant from the reference reaction was used to calibrate the mass spectrometry signal of the test reaction.
Additionally, the compound was extracted from the test reactions in order to directly measure the amount of compound in the formed condensates. […]

Where a name gives a salt, the structure may show the parent alone.

As for `N#CC1=c2cc3c4c(c2Oc2c1cc1c5c2CCCN5CCC1)CCC[N+]=4CCC3` [Dye 18, Rhodamine 800], the “Ratio of compound concentration in versus compound concentration out, MS-based assay” value (from here on “Ratio of compound concentration”) is given as >2,000.
In the case of `CCN(CC)c1ccc2c(-c3ccccc3C(=O)O)c3ccc(=[N+](CC)CC)cc-3oc2c1` [Dye 16, Rhodamine B], the “Measured fraction outside of the FUS-SNAP condensates, single compound test reactions versus mixture of four compounds” value is on record as “in agreement” and the “Ratio of compound concentration” value turned out to be 666.
Turning to `O=C([O-])c1ccccc1C1=c2cc3c4c(c2Oc2c1cc1c5c2CCCN5CCC1)CCC[N+]=4CCC3` [Dye 17, Rhodamine 101 inner salt], the “Partitioning into FUS-condensates at different compound concentrations (fraction of compound in supernatant)” value is on record as “partition into the FUS-condensates at lower compound concentrations”; the “Identified partitioning into FUS-condensates” value is on record as “partitioning into FUS-condensates”; the “Ratio of compound concentration” value is >8,000.
Regarding `O=C1OC2(c3ccc(O)cc3Oc3cc(O)ccc32)c2ccccc21` [Dye 6, Fluorescein], the “Partitioning into FUS-condensates at different compound concentrations (fraction of compound in supernatant)” value is “does not partition into the FUS-condensates at any of the tested concentrations”; the “Measured fraction outside of the FUS-SNAP condensates, single compound test reactions versus mixture of four compounds” value is given as “in agreement”; the “Identified partitioning into FUS-condensates” value is “not partitioning into FUS-condensates”; the “Ratio of compound concentration” value is reported as 1-100.
Consider `COC(=O)c1ccccc1-c1c2ccc(=N)cc-2oc2cc(N)ccc12.Cl` [Dye 14, Rhodamine 123], for which the “Ratio of compound concentration” value is on record as 1-100.

(Values after patent publication US12174198B2, “Methods of characterizing condensate-associated characteristics of compounds and uses thereof” (Dewpoint Therapeutics, Inc., priority 2019, dated 2024).)
